Source: PubChem BioAssay (NCI)
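How tested: cells in 96-well plates exposed to compound for 48 hours at five concentrations. GI50 = concentration required for 50% inhibition of growth. Definition used: TGI = concentration required for complete inhibition of growth.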

Legend:
Assay in all cases: NCI tumour cell line growth inhibition, 48 h
[1] = test system: MCF7 breast
[2] = test system: NCI-H460 lung
[3] = test system: OVCAR-3 ovarian
[4] = test system: HCT-116 colon
[5] = test system: NCI-H522 lung
[6] = test system: OVCAR-5 ovarian
[7] = test system: SW-620 colon
[8] = test system: U251 CNS
[9] = test system: UACC-257 melanoma
[10] = test system: SF-295 CNS
[11] = test system: UO-31 renal
[12] = test system: HOP-62 NSCLC
[13] = test system: HCT-15 colon
[14] = test system: HL-60(TB) leukemia
[15] = test system: RPMI-8226 leukemia
[16] = test system: MOLT-4 leukemia
[17] = test system: HS 578T breast
[18] = test system: MDA-MB-231 breast
[19] = test system: NCI-H226 lung
[20] = test system: DU-145 prostate
[21] = test system: BT-549 breast
[22] = test system: TK-10 renal
[23] = test system: RXF 393 renal
[24] = test system: LOX IMVI melanoma
[25] = test system: M14 melanoma
[26] = test system: SK-MEL-28 melanoma
[27] = test system: UACC-62 melanoma
[28] = test system: SK-MEL-2 melanoma
[29] = test system: PC-3 prostate
[30] = test system: SN12C renal
[31] = test system: OVCAR-4 ovarian
[32] = test system: IGROV1 ovarian
[33] = test system: SK-OV-3 ovarian
[34] = test system: KM12 colon
[35] = test system: NCI/ADR-RES ovarian
[36] = test system: 786-0 renal
[37] = test system: A549 NSCLC
[38] = test system: CCRF-CEM leukemia
[39] = test system: SF-268 CNS
[40] = test system: MDA-MB-435
[41] = test system: COLO 205 colon
[42] = test system: A498 renal
[43] = test system: CAKI-1 renal
[44] = test system: HCC-2998 colon
[45] = test system: EKVX NSCLC
[46] = test system: SF-539 CNS
[47] = test system: K-562 leukemia
[48] = test system: HT29 colon
[49] = test system: SK-MEL-5 melanoma
[50] = test system: SNB-19 CNS
[51] = test system: NCI-H23 lung
[52] = test system: SR leukemia
[53] = test system: SNB-75 CNS
[54] = test system: OVCAR-8 ovarian
[55] = test system: ACHN renal

For `O=C1OCC2=C1C(c1cccc(Cl)c1)c1cc3c(cc1N2CCO)OCO3` (configuration not stated), the GI50 [1] was 313 nM, the TGI [1] was greater than 100 µM and the GI50 [2] was 414 nM. The TGI [2] was greater than 35.3 µM, the GI50 [3] was 270 nM and the TGI [3] was 811 nM. It also gave a GI50 [4] of 466 nM, a TGI [4] greater than 36.3 µM and a GI50 [5] of 228 nM. For the same compound, the TGI [5] was 16.2 µM, the GI50 [6] was 1260 nM and the TGI [6] was greater than 100 µM. For the same compound, the GI50 [7] was 358 nM, the TGI [7] was greater than 100 µM and the GI50 [8] was 383 nM. The TGI [8] was 17.7 µM, the GI50 [9] was 256 nM and the TGI [9] was greater than 44.5 µM. For the same compound, the GI50 [10] was 260 nM, the TGI [10] was 22.4 µM and the GI50 [11] was 465 nM. For the same compound, the TGI [11] was greater than 65.4 µM, the GI50 [12] was 481 nM and the TGI [12] was 57.7 µM. The GI50 [13] was 428 nM, the TGI [13] was greater than 100 µM and the GI50 [14] was 328 nM. It also gave a TGI [14] of 3.7 µM, a GI50 [15] of 535 nM and a TGI [15] of 35.8 µM. The GI50 [16] was 1140 nM, the TGI [16] was 97.8 µM and the GI50 [17] was 445 nM. For the same compound, the TGI [17] was greater than 58.2 µM, the GI50 [18] was 1660 nM and the TGI [18] was 14.4 µM. It also gave a GI50 [19] of 753 nM, a TGI [19] of 20 µM and a GI50 [20] of 512 nM. The TGI [20] was 16.9 µM, the GI50 [21] was 603 nM and the GI50 [22] was 17.7 µM. For the same compound, the TGI [22] was greater than 100 µM, the GI50 [23] was 278 nM and the GI50 [24] was 600 nM. It also gave a TGI [24] of 27 µM, a GI50 [25] of 360 nM and a TGI [25] greater than 22.5 µM. The GI50 [26] was 755 nM, the TGI [26] was greater than 100 µM and the GI50 [27] was 360 nM. It also gave a TGI [27] greater than 44.6 µM, a GI50 [28] of 2440 nM and a TGI [28] greater than 44.3 µM. For the same compound, the GI50 [29] was 381 nM, the TGI [29] was greater than 43.7 µM and the GI50 [30] was 817 nM. The TGI [30] was greater than 63.7 µM, the GI50 [31] was 696 nM and the TGI [31] was greater than 100 µM. It also gave a GI50 [32] of 2790 nM, a TGI [32] greater than 74.4 µM and a GI50 [33] of 412 nM. For the same compound, the TGI [33] was 10.5 µM, the GI50 [34] was 398 nM and the TGI [34] was 29.6 µM. The GI50 [35] was 301 nM, the TGI [35] was greater than 41 µM and the GI50 [36] was 558 nM. For the same compound, the TGI [36] was greater than 41.8 µM, the GI50 [37] was 498 nM and the TGI [37] was 33.5 µM. For the same compound, the GI50 [38] was 527 nM, the TGI [38] was greater than 100 µM and the GI50 [39] was 700 nM. For the same compound, the TGI [39] was 34.6 µM, the GI50 [40] was 38.3 nM and the TGI [40] was 233 nM. It also gave a GI50 [41] of 360 nM, a TGI [41] of 1380 nM and a GI50 [42] of 230 nM. The TGI [42] was 2550 nM, the GI50 [43] was 216 nM and the TGI [43] was 22.6 µM. It also gave a GI50 [44] of 1070 nM, a TGI [44] of 14.3 µM and a GI50 [45] of 2590 nM. The TGI [45] was greater than 87.2 µM, the GI50 [46] was 303 nM and the GI50 [47] was 354 nM. For the same compound, the TGI [47] was greater than 100 µM, the GI50 [48] was 364 nM and the TGI [48] was 4.73 µM. It also gave a GI50 [49] of 256 nM, a TGI [49] of 12.5 µM and a GI50 [50] of 784 nM. It also gave a TGI [50] greater than 100 µM, a GI50 [51] of 502 nM and a TGI [51] greater than 100 µM. For the same compound, the GI50 [52] was 359 nM, the TGI [52] was 70.4 µM and the GI50 [53] was 281 nM. It also gave a TGI [53] greater than 100 µM, a GI50 [54] of 503 nM and a TGI [54] greater than 65.8 µM. The GI50 [55] was 785 nM and the TGI [55] was greater than 100 µM.
